Laboratory results taken from patent publication US9115145B2, “Tocotrienol derivatives and associated methods” (FIRST TECH INTERNATIONAL LIMITED, priority 2011, dated 2015).
pIC50: −log10 of the molar value.

Test system: MDA-MB-231 human breast cancer cell line
Assay: MTT assay of MDA-MB-231 cells
Type: cell-based
Conditions: media containing 5% fetal bovine serum
Procedure: MDA-MB-231 and MCF7 cells were plated at a density of 8×10^3 cells/well and 10^4 cells/well in 96-well culture plates, respectively. The compounds were fed in serum free media containing 5% and 1% fetal bovine serum for MDA-MB-231 and MCF7 cells, respectively.

CC(C)=CCC/C(C)=C/CC/C(C)=C/CC[C@]1(C)CCc2cc(O)c(C)c(C)c2O1 [Compound 1, γ-tocotrienol, reference compound]
pIC50: 5.03
